Results from patent US8071810B2, “C5a receptor antagonists” (Jerini AG, priority 2005, dated 2011).

Tests used:
C5a receptor = target: T1, C5a receptor (Homo sapiens, UniProt P21730); assay: Binding of 125I-C5a to human C5aR transfected HEK293 cells (Example 27); design: expressed in transfected cells; host or cells: HEK293 cells; conditions: 125I-C5a tracer, read-out: IC50 for the inhibition of the binding of C5a to the C5a receptor
T1 sequence (P21730 1-350): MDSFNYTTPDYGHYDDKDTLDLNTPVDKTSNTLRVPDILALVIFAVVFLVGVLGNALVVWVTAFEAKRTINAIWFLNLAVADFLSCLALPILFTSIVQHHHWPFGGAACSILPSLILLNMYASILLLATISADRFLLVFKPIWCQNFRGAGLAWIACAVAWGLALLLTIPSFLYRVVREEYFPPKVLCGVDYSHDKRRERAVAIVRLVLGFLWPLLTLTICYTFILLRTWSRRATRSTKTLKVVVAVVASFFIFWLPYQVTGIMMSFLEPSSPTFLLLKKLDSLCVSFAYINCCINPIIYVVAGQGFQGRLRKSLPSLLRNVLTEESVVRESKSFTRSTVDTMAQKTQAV
Protocol: The binding studies are done as determination of IC50 values with radioactively labeled C5a (125I) as tracer. For this purpose, human C5aR transfected HEK293 cells are adjusted to a concentration of […]. 30 μl of the cell suspension are added into a microtiter plate. Then the C5a receptor antagonists are added followed by 10 minutes pre-incubation at room temperature. After that, 10 μl of labelled C5a are added (15.000 cpm). The mixture is now incubated over ice for 30 minutes. After this the cells are isolated by means of a filter plate (Millipore MHVB 4510) and washed two times with 100 μl HAG-CM each (see example 32). The cells are dried and, after transferring the filter plate onto the adapter plate (Canberra 6005178), 50 μl/well Microscint 0 are added and the plate is measured in the scintillation counter.

[1] = system: E. coli induced oxidative burst in human whole blood; assay: E. coli induced oxidative burst in human whole blood (Phagoburst kit, Example 26); assay type: cell-based; conditions: read-out: IC50 for the inhibition of the E. coli induced oxidative burst in human whole blood
Protocol: The whole blood assay is carried out according to the instructions from the Phagoburst-Kit (Orpegen Pharma). 50 μg/ml of Refludan is used to inhibit blood clotting (Mollnes et al. 2002 Blood 100: 1869). Freshly drawn, anticoagulated blood is cooled over ice and 100 μl thereof are added to 10 μl of the compound solution containing at most 1.3% of DMSO. The mixture is incubated for 10 minutes at 37° C. After this the samples are put on ice again and 20 μl of opsonisated E. coli suspension (10^9 cells/ml) is added followed by 10 minutes of incubation at 37° C. 20 μl of the substrate are added to the cells followed by another 10 minutes of incubation at 37° C. After this 2 ml of lysis buffer are added to the cells, which are then kept at room temperature for 20 minutes. The cellular components are separated by centrifugation at 250×g for 5 minutes. The supernatant is discarded and 3 ml of washing solution are added to the pellet. The cells are centrifuged again and the resulting pellet is taken up in 200 μl DNA staining solution. The neutrophiles are analysed by means of a FACS device (FACSCalibur, Becton-Dickinson) according to the parameters given in the manual. […] It can be seen that, due to the determined activity, the compounds of this invention are suited to be used as therapeutics in human.

[2] = AB permeability in TC-7 cell based assay (Example 34); assay type: in vitro ADME; conditions: human, Caco-2, TC-7 cells, apical pH 6.5 / basolateral pH 7.4, 120 min
Protocol: Compounds to be tested are prepared at a concentration of 50 μM in HBSS-MES (5 mM, pH 6.5) (from a 10 mM stock solution in 100% DMSO). ^14C-mannitol (about 4 μM) is added and the solution is mixed and centrifuged. The supernatant is added to the apical side of a TC-7 cell culture (passage 15, in 24 well transwell plate) to obtain a DMSO concentration of 1%. At the basolateral side HBSS-HEPES (5 mM, pH 7.4) is placed. Subsequently, the cells are incubated for 120 minutes at 37° C. The integrity of the TC-7 cell layer is checked by means of the added mannitol (Papp <2.5 10^−6 cm/s). The Permeabilität Papp [cm/s] is equal to (VR×CR120)/(Δt×A×(CD,mid−CR,mid)). VR is the volume of the receiver chamber, CR120 the concentration the test compound in the receiver chamber after 120 minutes, Δt the incubation time, A the area of the TC-7 cell layer, CD,mid the midpoint concentration of the test substance in the donor chamber and CR,mid the concentration of the test compound in the receiver chamber.

Row | Structure (SMILES) | IC50 (C5a receptor) | IC50 [1] | Papp A→B at 120 min, 50 μM [2]
1 | CCc1c(N)cc(Cl)c(CC)c1NC(=O)N(Cc1ccc(Cl)cc1)c1ccc(CC(F)(F)F)cc1 [compound 103, 3-(3-amino-5-chloro-2,6-diethyl-phenyl)-1-(4-chloro-benzyl)-1-[4-(2,2,2-trifluoro-ethyl)-phenyl]-urea] | 58.6 nM | 800 nM | 
2 | CCc1ccc(N(Cc2ccc(C)nc2)C(=O)Nc2c(CC)c(N)cc(Cl)c2CC)cc1 [compound 106, 3-(3-amino-5-chloro-2,6-diethyl-phenyl)-1-(4-ethyl-phenyl)-1-(6-methyl-pyridin-3-ylmethyl)-urea] |  | 1600 nM | 22.3 ×10⁻⁶ cm/s
3 | CCc1ccc(N(C(=O)Nc2c(CC)c(N)cc(Cl)c2CC)C(C)c2ccc3c(c2)ncn3C)cc1 (stereo not drawn) [compound 122, 3-(3-amino-5-chloro-2,6-diethyl-phenyl)-1-(4-ethyl-phenyl)-1-[1-(1-methyl-1H-benzoimidazol-5-yl)-ethyl]-urea] |  | 3500 nM | 3.5 ×10⁻⁶ cm/s
